Source: patent US20080318949A1, “Pyrazolopyrimidinone Derivatives, Their Preparation And Their Use” (Topharman Shanghai Co., Ltd, priority 2005, published 2008)

What was measured:
[1] = molecular target: T1, PDE6 from bovine retina (Bos taurus, UniProt P11541+P23439); assay: PDE6 inhibitory activity test (scintillation proximity assay); type: biochemical; conditions: for IC50: PDE6 from bovine retina; for PDE6 IC50/PDE5 IC50: selectivity of PDE5 versus PDE6
T1 construct: the PDE6 was isolated form bovine retinas; from tissue; host or cells: bovine retina
T1 sequence (P11541 2-856 limits assumed): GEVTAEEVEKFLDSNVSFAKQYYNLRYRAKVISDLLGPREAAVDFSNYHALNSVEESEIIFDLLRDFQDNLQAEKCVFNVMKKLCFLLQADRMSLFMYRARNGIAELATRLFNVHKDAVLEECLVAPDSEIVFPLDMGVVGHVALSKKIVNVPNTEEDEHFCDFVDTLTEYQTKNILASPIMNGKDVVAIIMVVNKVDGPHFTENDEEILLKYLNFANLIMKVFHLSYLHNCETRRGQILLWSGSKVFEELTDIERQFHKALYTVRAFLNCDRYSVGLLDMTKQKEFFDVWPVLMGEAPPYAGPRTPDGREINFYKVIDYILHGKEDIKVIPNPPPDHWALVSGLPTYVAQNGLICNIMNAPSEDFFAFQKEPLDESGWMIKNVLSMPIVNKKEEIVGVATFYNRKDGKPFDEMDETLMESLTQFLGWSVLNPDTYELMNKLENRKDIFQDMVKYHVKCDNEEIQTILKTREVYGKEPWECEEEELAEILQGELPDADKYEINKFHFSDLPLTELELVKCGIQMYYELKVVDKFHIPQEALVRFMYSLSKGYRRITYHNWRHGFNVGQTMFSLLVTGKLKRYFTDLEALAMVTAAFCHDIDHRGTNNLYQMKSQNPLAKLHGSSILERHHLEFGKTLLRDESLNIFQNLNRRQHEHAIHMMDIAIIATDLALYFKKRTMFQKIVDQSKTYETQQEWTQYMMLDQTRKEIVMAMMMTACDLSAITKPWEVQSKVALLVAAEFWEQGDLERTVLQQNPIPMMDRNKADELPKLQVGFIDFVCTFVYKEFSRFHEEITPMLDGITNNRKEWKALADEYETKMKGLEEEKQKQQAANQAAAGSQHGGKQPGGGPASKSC
T1 sequence (P23439 2-850 limits assumed): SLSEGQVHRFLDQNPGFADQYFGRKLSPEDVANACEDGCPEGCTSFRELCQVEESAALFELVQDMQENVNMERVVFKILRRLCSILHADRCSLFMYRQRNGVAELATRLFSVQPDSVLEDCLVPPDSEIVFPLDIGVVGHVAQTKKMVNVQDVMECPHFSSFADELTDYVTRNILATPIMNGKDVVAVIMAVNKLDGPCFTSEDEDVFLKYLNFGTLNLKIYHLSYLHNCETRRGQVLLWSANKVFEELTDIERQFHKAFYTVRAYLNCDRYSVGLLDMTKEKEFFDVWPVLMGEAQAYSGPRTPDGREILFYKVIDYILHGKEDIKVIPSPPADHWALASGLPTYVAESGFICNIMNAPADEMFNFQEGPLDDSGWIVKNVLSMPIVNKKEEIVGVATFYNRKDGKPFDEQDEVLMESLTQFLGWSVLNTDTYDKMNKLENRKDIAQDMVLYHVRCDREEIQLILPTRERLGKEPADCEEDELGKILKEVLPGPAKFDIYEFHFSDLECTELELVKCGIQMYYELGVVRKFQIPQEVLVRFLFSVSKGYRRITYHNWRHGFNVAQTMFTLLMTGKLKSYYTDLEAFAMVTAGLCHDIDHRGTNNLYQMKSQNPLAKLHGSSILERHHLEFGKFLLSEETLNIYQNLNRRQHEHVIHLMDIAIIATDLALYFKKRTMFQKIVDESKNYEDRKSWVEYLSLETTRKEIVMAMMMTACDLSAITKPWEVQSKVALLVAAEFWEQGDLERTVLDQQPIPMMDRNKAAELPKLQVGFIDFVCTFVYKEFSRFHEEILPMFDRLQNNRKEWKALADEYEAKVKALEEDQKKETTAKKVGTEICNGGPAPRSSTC
Excerpt: (§1) The PDE5 and PDE3 were isolated form human platelets, while the PDE6 was isolated form bovine retinas. The enzyme inhibitory activity test conducted immediately after the enzymes had been isolated, using a scintillation proximity assay for the direct detection of AMP/GMP by the TRKQ7100 and TRKQ7090 kit. In summary, the effect of PDE inhibitors was investigated by assaying a fixed amount of enzyme in the presence of varying inhibitor concentrations and low substrate. The final assay volume was made up to 100 μl with 10 μl assay buffer (50 mM Tris/HCl PH 7.5, 8.3 mM MgCl2, 1.7 mM EGTA), and water. Reactions were initiated with enzyme, incubate for 30 minutes at 30° C. and terminated with 50 μl yttrium silicate SPA beads suspension containing zinc sulphate. Shook for 20 minutes and settled for 30 minutes in the dark, then counted on a BECKMAN LS6500 MULTI-PURPOSE SCINTILLATION COUNTER. The IC50 value for the compounds according the present invention was calculated according the counts.

[2] = test system: rat corpora cavernosa; assay: Pharmacodynamic test: intracavernous pressure on electric stimulation of the cavernous nerve; type: in vivo; conditions: anesthetized male SD rats, 5 mg/kg orally, ratio of ICP to MBp
Protocol: The test was carried out based on the methods reported (International Journal of Impotence Research 2002, 14, 251 and The Journal of Urology 1992, 147, 1124). After fasted for 12 hours, 4 male SD rats were randomized into each group. After anesthetizing the rats with sodium pentobarbital (50 mg/kg, i.p.), the penile skin was incised and the prepuce was degloved to expose completely the corpora cavernosa (CC). A needle linked to an electrophysiology instrument was inserted into the CC on the right side in order to measure the intracavernous pressure (ICP). The right carotid artery was cannulated in a similar manner to the polyethylene tube in order to monitor the mean blood pressure (MBp) continuously. […] Electric stimulation was performed at 2 Hz, for 60 s with a pulse duration of 5 ms and 3V using a stimulator. The compounds were administrated orally (5 mg/kg). The change of the ICP and MBp were monitored continuously before and after the administration. The effect of the compounds on the erection induced by electric stimulation was evaluated by the ratio of ICP to MBp. The parameter (ICP/MBp) was used to estimate the influence of the compounds to the rat corpora cavernosa. […] The statistical significance of the differences between groups was calculated using Duncan's multiple comparison.

[3] = molecular target: T2, PDE3 (Homo sapiens, UniProt Q14432); assay: PDE3 inhibitory activity test (scintillation proximity assay); type: biochemical; conditions: PDE3 isolated from human platelets
T2 construct: from tissue; host or cells: human platelets
T2 sequence (Q14432 whole entry): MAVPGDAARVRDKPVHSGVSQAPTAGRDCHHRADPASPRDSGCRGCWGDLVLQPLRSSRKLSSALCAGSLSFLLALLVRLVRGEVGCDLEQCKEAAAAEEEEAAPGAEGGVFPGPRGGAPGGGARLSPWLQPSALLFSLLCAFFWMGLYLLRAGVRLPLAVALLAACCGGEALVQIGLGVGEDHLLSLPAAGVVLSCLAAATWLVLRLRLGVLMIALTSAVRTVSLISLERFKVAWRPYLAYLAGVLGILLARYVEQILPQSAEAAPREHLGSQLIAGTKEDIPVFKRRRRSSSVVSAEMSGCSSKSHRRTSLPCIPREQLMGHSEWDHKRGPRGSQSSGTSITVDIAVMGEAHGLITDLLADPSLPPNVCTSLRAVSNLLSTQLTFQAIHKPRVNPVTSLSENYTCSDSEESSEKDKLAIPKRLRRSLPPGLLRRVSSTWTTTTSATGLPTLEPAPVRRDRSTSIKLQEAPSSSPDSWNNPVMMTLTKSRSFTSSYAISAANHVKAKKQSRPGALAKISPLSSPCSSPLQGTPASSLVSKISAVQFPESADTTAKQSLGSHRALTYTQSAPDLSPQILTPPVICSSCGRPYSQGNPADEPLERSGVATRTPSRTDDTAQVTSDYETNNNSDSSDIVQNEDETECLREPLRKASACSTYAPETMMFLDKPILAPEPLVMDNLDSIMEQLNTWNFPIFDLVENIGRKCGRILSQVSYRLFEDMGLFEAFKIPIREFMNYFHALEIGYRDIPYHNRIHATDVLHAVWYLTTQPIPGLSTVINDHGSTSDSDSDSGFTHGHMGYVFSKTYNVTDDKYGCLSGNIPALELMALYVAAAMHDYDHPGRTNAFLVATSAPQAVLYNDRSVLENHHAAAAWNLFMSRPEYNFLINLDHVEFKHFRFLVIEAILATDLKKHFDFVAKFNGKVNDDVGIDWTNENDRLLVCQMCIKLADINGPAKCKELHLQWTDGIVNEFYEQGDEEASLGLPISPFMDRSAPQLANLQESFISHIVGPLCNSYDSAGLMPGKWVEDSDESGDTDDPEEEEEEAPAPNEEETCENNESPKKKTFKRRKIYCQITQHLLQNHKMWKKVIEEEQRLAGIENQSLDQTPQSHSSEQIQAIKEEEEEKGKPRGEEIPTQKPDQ
Excerpt: as §1
PDE3 is a PDE isozyme distributed mainly in heart, so the inhibiting of PDE3 may lead to side effects associated with heart. Accordingly, the inhibitory activities of some example compounds according to the invention against PDE3 were determined.

[4] = molecular target: T3, PDE5 from human platelets (Homo sapiens, UniProt O76074); assay: PDE5 inhibitory activity test (scintillation proximity assay); type: biochemical
T3 construct: from tissue; host or cells: human platelets

[5] = test system: male KM mouse; assay: Acute oral toxicity test; type: in vivo; conditions: single oral dose of 3 g/kg, 10 or 11 mice per group
Protocol: In this test male KM mouse weighting 18-22 g were used, and 10 or 11 mouse were assigned randomly to each group. […] The animals were fasted for 12 hours before the administration.

[6] = PDE5 in the PDE6 selectivity table

Row | Compound | IC50 [1] [nM] | PDE6 IC50/PDE5 IC50 [1] | ICP/BP [2] | IC50 [3] [nM] | IC50 ([4]; PDE5 from human platelets) [nM] | IC50 [4, 6] [nM] | Number of death [5] | mortality rate [5] [%]
1 | CCCOc1ccc(S(=O)(=O)N(CCCO)CCCOC(C)=O)cc1-c1nc2c(CCC)nn(C)c2c(=O)[nH]1 [Example 92, 1-methyl-5-{2-propoxy-5-[[1-(3-acetoxypropyl)-1-(3-hydroxypropyl)]amidosulfonyl]phenyl}-3-n-propyl-1,6-dihydro-7H-pyrazolol[4,3-d]pyrimidin-7-one] | 254 | 66.0 | 86.4 ± 4.8 | 10500 | 3.85 | 3.85 | 0 | 0
2 | CCCOc1ccc(S(=O)(=O)N(CCCOC)CCCOC(C)=O)cc1-c1nc2c(CCC)nn(C)c2c(=O)[nH]1 [Example 118, 1-methyl-5-{2-propoxy-5-[[1-(3-methoxypropyl)-1-(3-acetoxypropyl)]amidosulfonyl]phenyl}-3-n-propyl-1,6-dihydro-7H-pyrazolo[4,3-d]pyrimidin-7-one] | 203 | 37.6 | 77.9 ± 2.3 | 20500 | 5.41 | 5.41 | 0 | 0
